Test results taken from the supplement of paper PMC10307832.

What was measured:
Assay in all cases: relative viability (nuclei count vs DMSO), 5 days (fraction); higher = more cells survive
[1] = compound: CN1C=C(C2=CC=CC=C21)/C=C\3/C4=C(C=CC=N4)NC3=O + COc1cccc2cc(-c3nc([C@H]4CC[C@H](C(=O)O)CC4)n4ncnc(N)c34)[nH]c12 [OSI-027] (partner 0.5 µM)
Method in brief: (§1)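 Lung cancer cell lines, seeded in 1536-well plates, were treated the following day by pin tool with a single drug or with five library-drug doses (not always all listed) in √10 steps on top of a fixed anchor-drug dose. Cells were fixed and nuclei stained in one step after 5 days, and nuclei were counted. Relative viability is the nuclei count for treated wells divided by that for vehicle wells, reported as medians of duplicate plates.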

[2] = compound: CN1C=C(C2=CC=CC=C21)/C=C\3/C4=C(C=CC=N4)NC3=O + CS(=O)(=O)N1CCN(Cc2cc3nc(-c4cccc5[nH]ncc45)nc(N4CCOCC4)c3s2)CC1 [Pictilisib] (partner 1 µM)
Method in brief: as §1

[3] = compound: CN1C=C(C2=CC=CC=C21)/C=C\3/C4=C(C=CC=N4)NC3=O + Cc1nc(NC(=O)N2CCC[C@H]2C(N)=O)sc1-c1ccnc(C(C)(C)C(F)(F)F)c1 [Alpelisib] (partner 2 µM)
Method in brief: as §1

[4] = compound: CN1C=C(C2=CC=CC=C21)/C=C\3/C4=C(C=CC=N4)NC3=O + CC(=O)Nc1cccc(-n2c(=O)n(C3CC3)c(=O)c3c(Nc4ccc(I)cc4F)n(C)c(=O)c(C)c32)c1 [Trametinib] (partner 0.02 µM)
Method in brief: as §1

Cell Line | relative viability ([1]; first compound 0.02 µM) | relative viability ([1]; first compound 0.06325 µM) | relative viability ([1]; first compound 0.6325 µM) | relative viability ([1]; first compound 2 µM) | relative viability ([2]; first compound 0.02 µM) | relative viability ([2]; first compound 0.06325 µM) | relative viability ([2]; first compound 0.6325 µM) | relative viability ([2]; first compound 2 µM) | relative viability ([3]; first compound 0.02 µM) | relative viability ([3]; first compound 0.06325 µM) | relative viability ([3]; first compound 0.6325 µM) | relative viability ([3]; first compound 2 µM) | relative viability ([4]; first compound 0.02 µM) | relative viability ([4]; first compound 0.06325 µM) | relative viability ([4]; first compound 0.6325 µM) | relative viability ([4]; first compound 2 µM) | relative viability ([1]; first compound 0.2 µM) | relative viability ([2]; first compound 0.2 µM) | relative viability ([3]; first compound 0.2 µM) | relative viability ([4]; first compound 0.2 µM)
NCI-H1734 | 0.581 | 0.631 | 0.68 | 0.565 | 0.432 | 0.454 | 0.466 | 0.45 | 0.706 | 0.663 | 0.675 | 0.662 | 0.603 | 0.619 | 0.676 | 0.699 |  |  |  | 
NCI-H1755 | 0.619 | 0.654 | 0.683 | 0.644 | 0.405 | 0.342 | 0.365 | 0.37 | 0.872 | 0.922 | 0.836 | 0.858 | 0.782 | 0.83 | 0.737 | 0.696 | 0.655 | 0.302 | 0.944 | 0.76
NCI-H1792 | 0.72 | 0.71 |  | 0.464 | 0.247 | 0.223 |  | 0.275 | 0.536 | 0.723 |  | 0.581 | 0.474 | 0.54 | 0.353 | 0.406 | 0.768 | 0.214 | 0.608 | 0.462
NCI-H1793 | 0.283 | 0.252 | 0.244 | 0.197 | 0.258 | 0.314 | 0.282 | 0.304 | 0.979 | 1.02 | 0.668 | 0.675 | 0.526 | 0.611 | 0.441 | 0.387 | 0.248 | 0.257 | 0.654 | 0.396
NCI-H1915 | 0.621 | 0.635 | 0.673 | 0.761 | 0.973 | 0.871 | 0.961 | 0.97 | 1.03 | 1.1 | 1.18 | 1.04 | 0.3 | 0.32 | 0.303 | 0.285 | 0.665 | 0.831 | 1.08 | 0.293
NCI-H1944 | 0.433 | 0.368 | 0.423 | 0.351 | 0.323 | 0.326 | 0.294 | 0.314 | 0.721 | 0.789 | 0.833 | 0.748 | 0.359 | 0.359 | 0.405 | 0.444 |  |  |  | 
NCI-H1975 | 0.698 | 0.739 | 0.646 | 0.449 | 0.297 | 0.255 | 0.246 | 0.246 | 0.603 | 0.718 | 0.625 | 0.498 | 0.32 | 0.237 | 0.326 | 0.271 | 0.828 | 0.251 | 0.536 | 0.323
NCI-H1993 | 0.454 | 0.515 | 0.571 | 0.577 | 0.743 | 0.772 | 0.809 | 0.804 | 0.631 | 0.653 | 0.736 | 0.698 | 0.517 | 0.5 | 0.342 | 0.507 | 0.587 | 0.826 | 0.678 | 0.589
NCI-H2009 | 0.684 | 0.616 | 0.688 | 0.642 | 0.804 | 0.672 | 0.8 | 0.792 | 1.2 | 1.14 | 1.24 | 1.05 | 0.261 | 0.255 | 0.296 | 0.263 | 0.668 | 0.682 | 1.22 | 0.293
NCI-H2023 | 0.395 | 0.351 | 0.337 | 0.316 | 0.258 | 0.17 | 0.193 | 0.181 | 0.649 | 0.594 | 0.516 | 0.53 | 0.528 | 0.571 | 0.378 | 0.43 | 0.231 | 0.128 | 0.542 | 
NCI-H2085 | 0.897 | 0.717 | 0.716 | 0.67 | 0.307 | 0.427 | 0.458 | 0.534 | 0.967 | 0.849 | 0.852 | 0.949 | 0.504 | 0.514 | 0.445 | 0.408 | 0.597 | 0.39 | 1.01 | 0.513
NCI-H2087 | 0.75 | 0.403 | 0.642 | 0.587 | 0.942 | 0.833 | 0.793 | 0.951 | 1.16 | 1.21 | 1.05 | 1.22 | 0.149 | 0.208 | 0.189 | 0.215 | 0.47 | 0.769 | 1.17 | 0.153
NCI-H2126 | 0.605 | 0.657 | 0.697 | 0.612 | 0.486 | 0.492 | 0.431 | 0.415 | 0.794 | 0.775 | 0.716 | 0.6 | 0.558 | 0.55 | 0.212 | 0.506 | 0.6 | 0.431 | 0.741 | 0.564
NCI-H2170 | 0.718 | 0.69 | 0.764 | 0.668 |  | 0.312 | 0.317 | 0.242 |  | 0.794 | 0.617 | 0.649 | 0.915 | 0.949 | 0.954 | 0.875 | 0.55 | 0.235 | 0.757 | 0.917
NCI-H2228 | 0.576 | 0.452 |  | 0.462 | 0.378 | 0.371 | 0.327 | 0.27 | 0.718 | 0.645 | 0.919 | 0.674 | 0.379 | 0.464 | 0.285 | 0.566 |  |  |  | 0.24
NCI-H2347 |  | 0.347 | 0.552 | 0.378 | 0.527 | 0.704 | 0.438 | 0.658 | 1.09 | 0.972 | 0.89 | 1.1 | 0.246 | 0.271 | 0.319 | 0.274 | 0.483 | 0.572 | 1.02 | 0.296
NCI-H2405 | 0.703 | 0.611 | 0.657 | 0.711 | 0.423 | 0.399 | 0.388 | 0.41 | 0.654 | 0.776 | 0.842 | 0.7 | 0.686 | 0.561 | 0.657 | 0.617 | 0.62 | 0.401 | 0.769 | 0.564
NCI-H3122 | 0.879 | 0.9 | 1.18 | 1.4 | 0.597 | 0.541 | 0.563 | 0.632 | 0.727 | 0.764 | 0.802 | 1 | 0.153 | 0.21 | 0.242 | 0.269 |  | 0.5 | 0.722 | 0.227
PC-3 [JPC-3] | 0.698 | 0.487 | 0.703 | 0.694 | 0.703 | 0.691 | 0.778 | 0.758 | 1.02 | 0.99 | 1.03 | 0.989 | 0.824 | 0.657 | 0.718 | 0.717 | 0.747 | 0.665 | 1.03 | 0.667
PC-14 | 0.95 | 0.819 | 0.84 | 0.785 | 0.573 | 0.662 | 0.635 | 0.691 | 0.99 | 1.03 | 0.906 | 1.04 | 0.713 | 0.69 | 0.747 | 0.78 | 0.751 | 0.881 | 1.19 | 0.692
RERF-LC-KJ | 0.551 | 0.574 | 0.554 | 0.545 | 0.748 | 0.524 | 0.445 | 0.497 | 0.904 | 0.848 | 0.811 | 0.736 | 0.887 | 0.835 | 0.804 | 0.822 | 0.493 | 0.55 | 0.748 | 0.771
SK-LU-1 | 0.273 | 0.284 | 0.354 | 0.382 | 0.425 | 0.544 | 0.472 | 0.543 | 0.879 | 0.671 | 0.94 | 1.17 | 0.414 | 0.475 | 0.416 | 0.533 | 0.333 | 0.63 | 0.956 | 0.475
SK-MES-1 | 0.58 | 0.628 | 0.608 | 0.446 | 0.338 | 0.308 | 0.342 | 0.302 | 0.763 | 0.853 | 0.963 | 1.02 | 0.509 | 0.603 | 0.596 | 0.54 | 0.582 | 0.346 | 0.84 | 0.538
SW 1573 | 0.737 | 0.557 | 0.54 | 0.551 | 0.474 | 0.489 | 0.532 | 0.521 | 0.742 | 0.644 | 0.803 | 0.814 | 0.531 | 0.576 | 0.687 | 0.712 | 0.559 | 0.51 | 0.782 | 0.571
